Measured values from patent publication US20020064883A1, “Measurement and quantification of 17 ketosteroid-sulfates as a biomarker of biological age” (priority 2000, published 2002).

Test system: Anabolic/Catabolic Index (ACI)
Test: Human clinical trial: effect of treatment on urinary Anabolic/Catabolic Index (ACI)
Format: in vivo
Experimental: The concentration of 17-KS-S in the sample was calculated from the ratio of the peak area of the compound of interest to that of the external standard multiplied by its concentration. The concentration of creatinine in urine was measured by a colorimetric method. The urinary Anabolic/Catabolic Index (ACI=X/Y) was calculated as a ratio of total 17-ketosteroid sulfate concentration (X, ng/μL) to creatinine concentration (Y, μg/μL).
There were two objectives in this example. The first was to investigate the ACI-age relationship using baseline information of ACI and the second was to investigate effects of four treatment groups on ACI.
There were 71 individuals for treatment allocation. They were identified with a number of 1 through 72 (69 was not used). Of these 71 individuals, five (subject identification numbers=3, 22, 24, 26 and 65) were not included in the data set of ACI measurements. Consequently, there were 66 individuals represented in the ACI information. Among the 66 individuals, three (subject ID=1, 9 and 60) had only baseline measurements. These three individuals contributed to the analysis of age/ACI relationship only. Therefore, the data set for looking at treatment effects consisted of 63 individuals. Not all of the 63 individuals have six serial observations.
A 24-hour urine specimen was collected from each individual before treatment. The urine specimens were quickly aliquoted, frozen, and immediately shipped on dry ice by overnight service for analysis. A ratio of total 17-ketosteroid sulfate concentration (ng/μL) to creatinine concentration (mg/mL) was calculated and expressed as ACI. Subsequent to treatment urine specimens were collected and analyzed at 24 hours. […] The fitted line has a negative slope (estimate of the slope is −0.061239 and is statistically significant from zero with p-value being equal to 0.0034.). Pearson correlation is estimated to be −0.35510 (p=0.0034). These findings indicate that ACI level decreases with ages between 40 and 65.
This part of the analysis was performed to determine if any of three different treatments affect the ACI level. That is to check whether the ACI level changes under and after termination of treatment. There were four treatment groups, referred to as groups 1-4. The individuals in Group 1 were given a placebo. The individuals in Group 2 were treated with 7-keto DHEA (25 mg/day dosage). The individuals in Group 3 were treated with Longevity Signal Formula (LSV) (2.008 mg/day dosage). The individuals in Group 4 were treated with Longevity Signal Formula (LSV) and Renewal Herbal Formula (Renewal).
FIG. 5 illustrates the plots of the individual profile for each treatment group for weeks 1-5. Each individual's serial observations are connected with a line to emphasize the trend over time. Measurements at week zero represent ACI prior treatment. Measurements at weeks 1-4 represent the ACI level after receiving treatments for 1-4 weeks respectively. Measurements at week 5 represent the ACI level three days after termination of treatment. FIG. 6 plots the mean responses at each point in time plus two standard errors.

SMILES: C[C@]12CC[C@H](O)CC1=CC(=O)[C@@H]1[C@@H]2CC[C@]2(C)C(=O)CC[C@@H]12 [7-keto DHEA]
- Effect of treatment on ACI level (in words) (under treatment, weeks 1-4 vs baseline): does not change the ACI level at all
- Mean of difference in ACI (week 1 − week 0 (week 0 = baseline; paired t-test)): −0.04
- Mean of difference in ACI (week 2 − week 0): 0.20
- Mean of difference in ACI (week 2 − week 1): 0.23
- Mean of difference in ACI (week 3 − week 0): −0.12
- Mean of difference in ACI (week 3 − week 1): −0.08
- Mean of difference in ACI (week 3 − week 2): −0.31
- Mean of difference in ACI (week 4 − week 0): −0.12
- Mean of difference in ACI (week 4 − week 1): −0.09
- Mean of difference in ACI (week 4 − week 2): −0.32
- Mean of difference in ACI (week 4 − week 3): −0.01
- Mean of difference in ACI (week 5 − week 0 (week 5 = three days after termination of treatment)): −0.10
- Mean of difference in ACI (week 5 − week 1): −0.07
- Mean of difference in ACI (week 5 − week 2): −0.30
- Mean of difference in ACI (week 5 − week 3): 0.01
- Mean of difference in ACI (week 5 − week 4): 0.02
